According to patent US20090098050A1, “CALCIUM BINDING PEPTIDES” (THE REGENTS OF THE UNVERSITY OF CALIFORNIA, priority 2005, published 2009):

Key:
[1] = Preferential binding to carious lesions in teeth (CLSM); design: species or system human; settings: labeled peptide, settings optimized per sample
Method: FIG. 9: Fluorescence micrographs showing specific binding of DSS peptides and variants to carious lesions in teeth. Adult human teeth were exposed to 12.5 uM 5(6)-carboxyfluorescein-labeled peptide without demineralization, washed extensively, and imaged by CLSM. Microscope and camera settings were optimized separately for each sample. […] White traces on the right side of each panel identify the position of the tooth surface, while arrows indicate the position of the stained lesion.
Sections of human teeth containing obvious carious lesions, which consist of demineralized enamel, were polished and exposed to 5(6)-carboxyfluorescein-labeled DSS peptides and variants using the protocol described in Example 2. The sections were washed extensively and imaged by CLSM using blue laser illumination (λ=488 nm) and a FITC emission filter, with microscope and camera settings adjusted for each sample to optimize the signal detected from each peptide. The images were examined to identify the relative levels of peptide binding in healthy versus carious tissue. […] Given their ability to remineralize at sites of enamel degradation (Example 6), they can also be used to initiate remineralization at sites of enamel degradation such as caries or injury sites without causing inappropriate nucleation on healthy tissue surfaces.

[2] = Binding to inorganic phosphate precipitates (relative fluorescence); settings: 12.5 μM labeled peptide, ten minutes, about 0.5% (w/v) salt
Method: FIG. 10: Relative levels of 8DSS peptide binding to various inorganic phosphate precipitates. 100 mM sodium phosphate (pH 7.5) was combined with 100 mM solutions of MgCl2, CaCl2, MnCl2, CoCl2, NiSO4, CuSO4, and SrCl2, respectively. Suspensions were made of each phosphate salt at a concentration of approximately 0.5% (w/v) in the presence of 12.5 μM 5(6)-carboxyfluorescein-labeled 8DSS peptide. After a ten minute incubation at room temperature, samples were washed and imaged by fluorescence microscopy. The intensity of the fluorescent staining of the inorganic phosphate particles in each sample was assessed by measuring the pixel intensity values using the GIMP (www.gimp.org) as described in Example 11. Normalized fluorescence values are plotted here. […] On the Y-axis, the relative fluorescence intensity values are plotted.
Phosphate salts of magnesium, calcium, manganese, cobalt, nickel, copper, and strontium were prepared by combining 100 mM sodium phosphate (pH 7.5) with 100 mM solutions of the chloride or sulfate salts of the aforementioned metal ions (MgCl2, CaCl2, MnCl2, CoCl2, NiSO4, CuSO4, and SrCl2, respectively). […] Each sample was incubated for ten minutes at room temperature, then washed twice with a solution of 50 mM HEPES pH 7.0 and 10 mM NaCl, resuspended in the same buffer, and imaged by fluorescence microscopy. […]

[3] = Nucleation of hydroxyapatite on tooth enamel and dentin (SEM); design: species or system human; settings: 12.5 μM peptide, SBFn 4 hours then SBFg
Method: FIG. 5: Nucleation of hydroxyapatite on enamel (top) and dentin (bottom) surfaces. Surfaces were prepared and treated as described in Example 6 and as indicated by the labels, followed by imaging using Scanning Electron Microscopy. The upper group (top two rows) represents enamel samples, while the lower group (bottom two rows) represents dentin samples. Within each group, the top row represents samples that were not demineralized prior to treatment, and the bottom row represents samples that were demineralized by treatment with phosphoric acid. Scanning Electron Micrographs are shown, scale bars=[…]. Left column: samples that were not exposed to any treatment prior to nucleation and crystal growth. Center column: samples that were exposed to buffer only prior to nucleation and crystal growth. Right column: samples that were exposed to 12.5 μM 8DSS peptide prior to nucleation and crystal growth. Crystal growth indicates early nucleation. To determine whether applying DSS to various preparations of tissue promoted HA nucleation, which could ultimately lead to tissue remineralization, sagittally sectioned adult human teeth (obtained after extraction during normal clinical practice) were polished using a Streurs grinding wheel, and prepared for nucleation experiments. […]

[4] = Tissue specificity of binding in demineralized and nondemineralized teeth (CLSM); design: species or system human; settings: 12.5 μM labeled peptide
Method: FIG. 6: Tissue specificity of 8DSS peptide binding and its dependence on mineralization state. Demineralized and nondemineralized human teeth samples were incubated with 12.5 μM 5(6)-carboxyfluorescein-labeled 8DSS peptide as described in Example 9, and sections were rinsed and imaged by CLSM. […] The dentin-enamel junction, labeled DEJ, is clearly demarcated in both cases.
Sagitally sectioned human teeth were either demineralized by incubation with 0.5 M EDTA for 15 minutes or left nondemineralized. Samples were then incubated for ten minutes in a solution of 12.5 μM 5(6)-carboxyfluorescein-labeled 8DSS, 10 mM NaCl, and 50 mM HEPES, pH 7.0. Control samples were incubated without peptide. Sections were then rinsed and imaged by CLSM using identical laser and camera settings.

## 8DSS: peptide containing eight Asp-Ser-Ser (DSS) repeats, SEQ ID NO:15 (DSSDSSDSSDSSDSSDSSDSSDSS; calcium binding peptide containing eight DSS repeats, 8DSS)
[1]
  Specificity of binding to carious lesions versus surrounding healthy enamel: highly specific binding to carious lesions
  Strength of staining of carious lesions: exceptionally strong staining of carious lesions
[2]
  Fluorescent staining of CaHPO4 and SrHPO4 aggregates: highest levels of staining
  Fluorescent staining of NiHPO4 aggregates: small level of staining
[3]
  Crystal growth (nucleation) on demineralized enamel: significant crystal growth
  Crystal growth (nucleation) on nondemineralized dentin: most significant growth
[4]; demineralized sample
  Binding pattern in demineralized tooth tissue: Primary binding is to the demineralized enamel (E) with little binding to the dentin (D)
[4]; nondemineralized sample
  Binding pattern in nondemineralized tooth tissue: primary binding is to the dentin (D) with little or no binding to the enamel (E)
